Legend:
P. acnes NCTC 737 [1] = assay: Disc diffusion / synergy disc diffusion assay ((S)DDA); format: cell-based, Propionibacterium acnes
Method: (§1) The propionibacteria were cultured and maintained on Wilkins-Chalgren Anaerobe Medium (agar and broth) at pH 6.0; all cultures were incubated anaerobically at 37° C. for 72 hours.
(c) Disc Diffusion Assay (DDA)
This is an internationally recognised standard method for qualitatively assessing the antimicrobial activity of a compound.
A sterile paper disc was impregnated with a sample of the test compound in a suitable solvent and 30 minutes allowed for the solvents to evaporate (where possible). The disc was then placed on an agar plate onto which the test micro-organism had been inoculated. The plate was then incubated under the conditions described above, following which it was examined visually for signs of microbial growth. […] The diameter of this zone of “inhibition” was measured using a ProtoCOL™ automated zone sizer (Synbiosis, Cambridge, UK).
(d) Synergy Disc Diffusion Assay (SDDA)
This is a variation on the DDA method, in which two compounds are tested together for their combined antimicrobial activity.
Two test compounds A and B were placed on a single paper disc and the above described DDA procedure repeated.
Mixtures of the two test compounds were then subjected to SDDA assays as described above.
For the (S)DDA experiments, 50 μg of the DC was loaded onto each disc, and 200 μg of the ZP. All the (S)DDA experiments were conducted in triplicate.
For the (S)DDA experiments, 50 μg of the DI was loaded onto each disc, and 200 μg of the ZP. The DI and ZP were both dissolved in DMSO.
All the (S)DDA experiments were conducted in triplicate.

P. acnes PRP-039 = format: cell-based, Propionibacterium acnes; settings: P. acnes PRP-039 (Tet/MLS); 50 μg DC or 200 μg ZP per disc
Method: (§2) Other propionibacterial strains were also tested, as described in Example 4 below. These included certain antibiotic resistant propionibacteria, such as the two P. acnes strains designated PRP-010 and PRP-039 which are resistant respectively to macrolides-lincosamides-streptogramins-ketolides (MLSK) and to macrolides-lincosamides-streptogramins (MLS) and tetracycline—in other words, PRP-010 is resistant to erythromycin and clindamycin, and PRP-039 to erythromycin, clindamycin and tetracycline.
(§3) Some of these strains have known antibiotic resistance.
(§4) All the experiments were conducted in triplicate.

P. acnes PRP-010 = format: cell-based, Propionibacterium acnes; settings: P. acnes PRP-010 (MLSK); 50 μg DC or 200 μg ZP per disc
Method: as §2, §3, §4

P. acnes PRP-046 = assay: (S)DDA; format: cell-based, Propionibacterium acnes; settings: P. acnes PRP-046 (resistance None); 50 μg DC or 200 μg ZP per disc
Method: as §3, §4

P. acnes PRP-007 = assay: (S)DDA; format: cell-based, Propionibacterium acnes; settings: P. acnes PRP-007 (Clin); 50 μg DC or 200 μg ZP per disc
Method: as §3, §4

P. granulosum PRP-019 = format: cell-based, Propionibacterium granulosum; settings: P. granulosum PRP-019 (MLSK); 50 μg DC or 200 μg ZP per disc
Method: as §3, §4

P. granulosum PRP-005 = format: cell-based, Propionibacterium granulosum; settings: P. granulosum PRP-005 (MLSK); 50 μg DC or 200 μg ZP per disc
Method: as §3, §4

P. granulosum PRP-044 = format: cell-based, Propionibacterium granulosum; settings: P. granulosum PRP-044 (MLS); 50 μg DC or 200 μg ZP per disc
Method: as §3, §4

P. granulosum PRP-021 = format: cell-based, Propionibacterium granulosum; settings: P. granulosum PRP-021 (MLS); 50 μg DC or 200 μg ZP per disc
Method: as §3, §4

P. granulosum PRP-043 = format: cell-based, Propionibacterium granulosum; settings: P. granulosum PRP-043 (MLS); 50 μg DC or 200 μg ZP per disc
Method: as §3, §4

P. granulosum PRP-006 = format: cell-based, Propionibacterium granulosum; settings: P. granulosum PRP-006 (MLS); 50 μg DC or 200 μg ZP per disc
Method: as §3, §4

P. acnes NCTC 737 [2] = assay: Minimum Bactericidal Concentration (MBC) assay; format: cell-based, Propionibacterium acnes; settings: for MBC: sub-culture after MIC assay
Method: as §1
(b) Minimum Bactericidal Concentration (MBC) Assay
This assay, normally carried out after an MIC assay, determines the minimum concentration of a compound that is lethal to the micro-organism being tested.
These samples were then individually sub-cultured on antibiotic-free agar medium, under the incubation conditions described above. Following incubation they were examined visually for bacterial growth.
The ratio of MIC to MBC should ideally be as close to 1 as possible.
(§5) The following experiments all used P. acnes NCTC 737 as the test organism.
(§6) MIC, MBC and DDA assays, as described above, were carried out using the test compounds (a) dequalinium chloride (DC), dissolved in ethanol and (b) zinc pyrithione (ZP), dissolved in DMSO. Both compounds were sourced from Sigma-Aldrich, UK.
(§7) The general method of Example 1 was repeated using another bis-quinolinium salt, dequalinium iodide (DI), which was also obtained from Sigma-Aldrich, UK. This compound was tested against P. acnes NCTC 737, both alone and in combination with ZP.

[3] = test system: C. difficile ATCC 7000057; assay: (S)DDA; format: cell-based, Clostridium difficile; settings: 50 μg DC or 200 μg ZP per disc
Method: (§8) The activity of a DC/ZP combination was determined, using (S)DDAs, against two further test micro-organisms, namely C. difficile ATCC 7000057 and Cor. mucifaciens ATCC 700355. A DI/ZP combination was also tested against Cor. mucifaciens.
(§9) In these tests, 50 μg (for C. difficile) or 200 μg (for Cor. mucifaciens) of the DC was loaded onto each disc. The DI and the ZP were both loaded at 200 μg per disc. All the (S)DDA experiments were conducted in triplicate.

[4] = test system: Cor. mucifaciens ATCC 700355; assay: (S)DDA; format: cell-based, Corynebacterium mucifaciens
Method: as §8, §9

P. granulosum NCTC 11865 = assay: (S)DDA; format: cell-based, Propionibacterium granulosum; settings: P. granulosum NCTC 11865 (resistance None); 50 μg DC or 200 μg ZP per disc
Method: as §3, §4

P. granulosum PRP-055 = assay: (S)DDA; format: cell-based, Propionibacterium granulosum; settings: P. granulosum PRP-055 (resistance None); 50 μg DC or 200 μg ZP per disc
Method: as §3, §4

P. acnes NCTC 737 [5] = assay: Minimum Inhibitory Concentration (MIC) assay; format: cell-based, Propionibacterium acnes; settings: for MIC: anaerobic, 37° C., 72 hours
Method: as §1
(a) Minimum Inhibitory Concentration (MIC) Assay
This is a standard international method for quantitatively assessing the antimicrobial activity of a compound in a liquid medium. The method used a sterile 96-well microtitre plate, capable of holding about 200 μl of liquid per well. The wells contained liquid culture medium and ranges of decreasing concentrations of the relevant test compound in doubling dilutions (eg, 1000, 500, 250, 125 . . . μg/ml, etc. down to 0.49 μg/ml). The culture medium was as described above.
The wells were inoculated with a liquid suspension of freshly grown micro-organism and incubated under the conditions described above. After incubation, the microtitre plate was examined visually (with the aid of a light box) for cloudiness in each well, which would indicate microbial growth. The MIC value was recorded as the lowest concentration of test compound required to inhibit microbial growth, ie, the lowest concentration for which the liquid in the well remained clear.
The assays were conducted in duplicate and included both negative (culture medium with no micro-organisms) and positive (culture medium plus diluting solvent plus micro-organism) controls.
as §5, §6, §7

P. acnes PRP-023 = format: cell-based, Propionibacterium acnes; settings: P. acnes PRP-023 (MLSK); 50 μg DC or 200 μg ZP per disc
Method: as §3, §4

P. acnes PRP-003 = format: cell-based, Propionibacterium acnes; settings: P. acnes PRP-003 (Tet); 50 μg DC or 200 μg ZP per disc
Method: as §3, §4

P. acnes PRP-059 = format: cell-based, Propionibacterium acnes; settings: P. acnes PRP-059 (MLS); 50 μg DC or 200 μg ZP per disc
Method: as §3, §4

P. acnes PRP-017 = format: cell-based, Propionibacterium acnes; settings: P. acnes PRP-017 (MLS); 50 μg DC or 200 μg ZP per disc
Method: as §3, §4

P. acnes PRP-101 = format: cell-based, Propionibacterium acnes; settings: P. acnes PRP-101 (Tet/MLS); 50 μg DC or 200 μg ZP per disc
Method: as §3, §4

P. acnes PRP-002 = format: cell-based, Propionibacterium acnes; settings: P. acnes PRP-002 (Tet/MLS); 50 μg DC or 200 μg ZP per disc
Method: as §3, §4

P. acnes PRP-008 = format: cell-based, Propionibacterium acnes; settings: P. acnes PRP-008 (Clin); 50 μg DC or 200 μg ZP per disc
Method: as §3, §4

P. acnes PRP-004 = format: cell-based, Propionibacterium acnes; settings: P. acnes PRP-004 (Tet); 50 μg DC or 200 μg ZP per disc
Method: as §3, §4

P. acnes PRP-026 = format: cell-based, Propionibacterium acnes; settings: P. acnes PRP-026 (MLS); 50 μg DC or 200 μg ZP per disc
Method: as §3, §4

P. acnes PRP-102 = format: cell-based, Propionibacterium acnes; settings: P. acnes PRP-102 (Tet/MLS); 50 μg DC or 200 μg ZP per disc
Method: as §3, §4

P. acnes PRP-068 = format: cell-based, Propionibacterium acnes; settings: P. acnes PRP-068 (Ery); 50 μg DC or 200 μg ZP per disc
Method: as §3, §4

P. acnes PRP-053 = format: cell-based, Propionibacterium acnes; settings: P. acnes PRP-053 (Tet/MLS); 50 μg DC or 200 μg ZP per disc
Method: as §3, §4

[6] = Example 1, zone of inhibition diameter, 50 μg DC or 200 μg ZP per disc
[7] = Table 6, 200 μg DC or 200 μg ZP per disc
[8] = Example 3, zone of inhibition diameter, 50 μg DI or 200 μg ZP per disc, both in DMSO
[9] = Table 7, 200 μg DI or 200 μg ZP per disc

| Molecule | DDA (P. acnes NCTC 737 [1]; [6]) | DDA (P. acnes PRP-039) | DDA (P. acnes PRP-010) | DDA (P. acnes PRP-046) | DDA (P. acnes PRP-007) | DDA (P. granulosum PRP-019) | DDA (P. granulosum PRP-005) | DDA (P. granulosum PRP-044) | DDA (P. granulosum PRP-021) | DDA (P. granulosum PRP-043) | DDA (P. granulosum PRP-006) | MIC/MBC ratio (P. acnes NCTC 737 [2]) | MBC (P. acnes NCTC 737 [2]) | DDA [3] | DDA [4, 7] | DDA (P. granulosum NCTC 11865) | DDA (P. granulosum PRP-055) | activity of compound alone (MIC, MBC, DDA data) (P. acnes NCTC 737 [5]) | MIC (P. acnes NCTC 737 [5]) | DDA (P. acnes PRP-023) | further results |
| --- | --- | --- | --- | --- | --- | --- | --- | --- | --- | --- | --- | --- | --- | --- | --- | --- | --- | --- | --- | --- | --- |
| Cc1cc(N)c2ccccc2[n+]1CCCCCCCCCC[n+]1c(C)cc(N)c2ccccc21.[Cl-].[Cl-] [DC, dequalinium chloride] | 16.68 mm | 28.98 mm | 17.37 mm | 21.38 mm | 18.91 mm | 18.91 mm | 20.55 mm | 17.37 mm | 27.95 mm | 23.02 mm | 26.82 mm | 0.5 | 15.6 µg/mL | 0.0 mm | 17.2 mm | 14.08 mm | 29.08 mm | active | 7.8 µg/mL | 19.32 mm | DDA (P. acnes PRP-003): 21.27 mm; DDA (P. acnes PRP-059): 19.42 mm; DDA (P. acnes PRP-017): 17.27 mm; DDA (P. acnes PRP-101): 16.96 mm; DDA (P. acnes PRP-002): 20.04 mm; DDA (P. acnes PRP-008): 19.73 mm; DDA (P. acnes PRP-004): 20.45 mm; DDA (P. acnes PRP-026): 19.01 mm; DDA (P. acnes PRP-102): 21.68 mm; DDA (P. acnes PRP-068): 20.45 mm; DDA (P. acnes PRP-053): 21.38 mm |
| zinc pyrithione [ZP] | 15.85 mm | 29.70 mm | 20.96 mm | 35.56 mm | 10.79 mm | 19.73 mm | 20.04 mm | 18.50 mm | 29.70 mm | 43.37 mm | 32.58 mm | 0.125 | 7.8 µg/mL | 20.31 mm | 28.14 mm | 23.95 mm | 50.05 mm | active | 0.98 µg/mL | 17.37 mm | DDA (P. acnes NCTC 737 [1]; [8]): 46.44 mm; DDA [4, 9]: 28.14 mm; DDA (P. acnes PRP-003): 26.82 mm; DDA (P. acnes PRP-059): 16.34 mm; DDA (P. acnes PRP-017): 19.01 mm; DDA (P. acnes PRP-101): 14.39 mm; DDA (P. acnes PRP-002): 25.79 mm; DDA (P. acnes PRP-008): 14.90 mm; DDA (P. acnes PRP-004): 12.43 mm; DDA (P. acnes PRP-026): 16.24 mm; DDA (P. acnes PRP-102): 16.85 mm; DDA (P. acnes PRP-068): 14.90 mm; DDA (P. acnes PRP-053): 29.91 mm |
| Cc1cc(N)c2ccccc2[n+]1CCCCCCCCCC[n+]1c(C)cc(N)c2ccccc21.[I-].[I-] [DI, dequalinium iodide] |  |  |  |  |  |  |  |  |  |  |  | 0.03 | 125 µg/mL |  |  |  |  | active | 3.9 µg/mL |  | DDA (P. acnes NCTC 737 [1]; [8]): 21.92 mm; DDA [4, 9]: 22.93 mm |
